Data published in patent publication US9802941B2, “Compounds and methods for inhibiting histone demethylases” (Gilead Sciences, Inc., priority 2014, dated 2017).
Read-outs that look alike come from different tables or passages of the source.

What was measured:
Assay type in all cases: biochemical
KDM4C (JMJD2C) = target: T1, KDM4C (JMJD2C) (Homo sapiens, UniProt Q9H3R0); assay: Histone lysine demethylase AlphaLISA assay, KDM4C
T1 construct: KDM4C; BRIC, Denmark; 1-349; E. coli; host or cells: E. coli
T1 sequence (Q9H3R0 1-349): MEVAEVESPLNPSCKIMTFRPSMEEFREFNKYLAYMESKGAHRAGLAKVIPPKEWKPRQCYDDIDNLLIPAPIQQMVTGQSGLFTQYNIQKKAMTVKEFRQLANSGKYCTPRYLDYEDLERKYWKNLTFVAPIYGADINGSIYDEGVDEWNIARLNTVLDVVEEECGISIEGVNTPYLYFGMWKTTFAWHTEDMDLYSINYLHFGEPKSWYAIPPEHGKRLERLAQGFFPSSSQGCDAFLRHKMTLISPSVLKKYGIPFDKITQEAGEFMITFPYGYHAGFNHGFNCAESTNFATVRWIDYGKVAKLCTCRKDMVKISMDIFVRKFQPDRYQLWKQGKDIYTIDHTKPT
Description: (§1) The compounds of the application, or a pharmaceutically acceptable salt, or solvate, or prodrug thereof, are tested in an in vitro AlphaLISA assay. Enzymes are dissolved in enzyme buffer and incubated before they are added to DMSO solutions of compounds of the application, or a pharmaceutically acceptable salt, or solvate, or prodrug thereof, in enzyme buffer. The reaction mixture is then incubated for an additional period of time before substrate solution is added and then the resulting mixture again incubated. Acceptor beads and suspended Epigenetic Buffer from stock are added and the suspension is again incubated before a suspension of streptavidin donor beads in Epigenetic Buffer is added. After an additional period of incubation, the plates are read.
(§2) The ability of compounds of the application to inhibit the histone lysine demethylase activity in vitro of different enzymes was determined.
(§3) The reaction mixture was incubated for another 10 minutes before 5 μL of substrate solution was added and the resulting mixture was then incubated at room temperature. […] After incubation at room temperature in the dark, the plates were read.
(§4) Enzyme Buffer: 50 mM Hepes (pH 7.4-8.0), 0.003-0.01% Tween-20, 0.1% BSA; 5 μM (NH4)2Fe(SO4)2.

PHF8 (KDM7) = target: T2, PHF8 (KDM7) (Homo sapiens, UniProt Q9UPP1); assay: Histone lysine demethylase AlphaLISA assay, PHF8
T2 construct: KDM7 (PHF8); BRIC; 1-1322; Bac
Description: as §1, §2, §3, §4

KDM2B (FBXL10) = target: T3, KDM2B (FBXL10) (Homo sapiens, UniProt Q8NHM5); assay: Histone lysine demethylase AlphaLISA assay, KDM2B
T3 construct: KDM2B; BPS,; 1-650; Bac; purchased BPS Bioscience, US; host or cells: baculovirus system
T3 sequence (Q8NHM5 1-650): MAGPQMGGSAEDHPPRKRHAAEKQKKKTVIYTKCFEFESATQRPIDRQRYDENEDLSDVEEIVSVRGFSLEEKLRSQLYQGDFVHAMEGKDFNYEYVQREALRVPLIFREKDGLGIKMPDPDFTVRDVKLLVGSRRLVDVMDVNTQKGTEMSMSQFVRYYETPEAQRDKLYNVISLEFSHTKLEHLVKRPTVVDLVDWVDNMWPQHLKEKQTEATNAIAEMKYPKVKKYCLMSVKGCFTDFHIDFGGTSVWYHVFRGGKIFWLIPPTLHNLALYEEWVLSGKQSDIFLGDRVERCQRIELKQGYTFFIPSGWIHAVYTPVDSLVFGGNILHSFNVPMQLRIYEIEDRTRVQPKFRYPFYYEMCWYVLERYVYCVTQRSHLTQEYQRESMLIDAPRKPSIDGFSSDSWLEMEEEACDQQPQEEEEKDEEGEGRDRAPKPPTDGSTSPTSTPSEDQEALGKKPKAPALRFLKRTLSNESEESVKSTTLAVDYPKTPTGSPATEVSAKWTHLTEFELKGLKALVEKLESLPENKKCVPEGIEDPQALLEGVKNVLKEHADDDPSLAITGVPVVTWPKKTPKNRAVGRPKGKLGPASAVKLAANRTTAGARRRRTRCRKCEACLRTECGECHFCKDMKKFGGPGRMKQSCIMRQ
Description: as §1, §2, §3, §4

KDM5B (PLU-1) = target: T4, KDM5B (PLU-1) (Homo sapiens, UniProt Q9UGL1); assay: Histone lysine demethylase AlphaLISA assay, KDM5B
T4 construct: BRIC; 1-809; E. coli; host or cells: E. coli
T4 sequence (Q9UGL1 1-809): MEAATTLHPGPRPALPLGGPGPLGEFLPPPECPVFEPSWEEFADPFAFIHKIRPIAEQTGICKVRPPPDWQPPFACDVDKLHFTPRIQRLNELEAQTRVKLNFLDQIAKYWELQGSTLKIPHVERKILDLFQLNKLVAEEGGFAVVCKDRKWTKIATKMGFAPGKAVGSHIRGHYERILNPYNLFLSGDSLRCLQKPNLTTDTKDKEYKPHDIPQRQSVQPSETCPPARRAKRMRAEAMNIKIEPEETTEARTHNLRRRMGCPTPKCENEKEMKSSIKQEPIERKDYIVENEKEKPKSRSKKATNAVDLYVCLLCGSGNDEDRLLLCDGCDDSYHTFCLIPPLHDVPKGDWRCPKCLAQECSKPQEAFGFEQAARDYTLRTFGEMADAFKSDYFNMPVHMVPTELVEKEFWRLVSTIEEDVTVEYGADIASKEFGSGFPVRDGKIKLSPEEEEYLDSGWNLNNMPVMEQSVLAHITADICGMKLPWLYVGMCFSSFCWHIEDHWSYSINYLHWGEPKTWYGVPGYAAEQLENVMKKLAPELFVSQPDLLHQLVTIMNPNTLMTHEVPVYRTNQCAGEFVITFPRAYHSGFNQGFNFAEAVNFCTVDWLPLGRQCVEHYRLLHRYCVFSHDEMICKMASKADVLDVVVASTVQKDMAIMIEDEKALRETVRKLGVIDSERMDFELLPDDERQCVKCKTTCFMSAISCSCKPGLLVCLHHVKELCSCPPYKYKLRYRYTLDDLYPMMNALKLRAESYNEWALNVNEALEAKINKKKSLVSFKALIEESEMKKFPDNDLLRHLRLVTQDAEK
Description: as §1, §2, §3, §4

[1] = AlphaLISA assay, read-out: HDME Inhibition KDM4C (IC50)
[2] = AlphaLISA, in vitro, read-out: HDME Inhibition KDM4C
[3] = AlphaLISA, in vitro, read-out: HDME Inhibition PHF8
[4] = AlphaLISA, in vitro, read-out: HDME Inhibition KDM2B
[5] = AlphaLISA assay, read-out: HDME Inhibition KDM5B (IC50)
[6] = AlphaLISA, in vitro, read-out: HDME Inhibition KDM5B
[7] = AlphaLISA assay, read-out: HDME Inhibition PHF8 (IC50)

Row | IC50 (KDM4C (JMJD2C); [1]) | IC50 (KDM4C (JMJD2C); [2]) | IC50 (PHF8 (KDM7); [3]) | IC50 (KDM2B (FBXL10); [4]) | IC50 (KDM5B (PLU-1); [5]) | IC50 (KDM5B (PLU-1); [6]) | IC50 (KDM5B (PLU-1)) | IC50 (PHF8 (KDM7); [7]) | IC50 (KDM2B (FBXL10); AlphaLISA assay, read-out: HDME Inhibition KDM2B (IC50)) | Compound
1 | > 10 µM | > 10 µM | 0.859 µM | 0.659 µM | > 10 µM | > 10 µM |  |  |  | C/C=C/c1cnc(CNCc2cc(C(=O)O)cc(C)n2)n1Cc1ccc(F)cc1 [Compound 42, 2-{[({1-[(4-fluorophenyl)methyl]-5-[(1E)-prop-1-en-1-yl]-1H-imidazol-2-yl}methyl)amino]methyl}-6-methylpyridine-4-carboxylic acid]
2 | > 10 µM | > 10 µM | 3.88 µM | 2.83 µM | > 10 µM | > 10 µM |  |  |  | Cc1cc(C(=O)O)cc(CNCc2nncn2CCc2cc(Cl)cc(Cl)c2)n1 [Compound 51, 2-{[({4-[2-(3,5-dichlorophenyl)ethyl]-4H-1,2,4-triazol-3-yl}methyl)amino]methyl}-6-methylpyridine-4-carboxylic acid]
3 | > 10 µM | > 10 µM | 5.1 µM | 0.823 µM |  |  | 1.07 µM |  |  | O=Cc1cn(Cc2ccc(F)cc2)c(CNCc2cc(C(=O)O)cc(CO)n2)n1 [Compound 111, 2-{[({1-[(4-fluorophenyl)methyl]-4-formyl-1H-imidazol-2-yl}methyl)amino]methyl}-6-(hydroxymethyl)pyridine-4-carboxylic acid]
4 | > 10 µM | > 10 µM | 0.16 µM | 0.056 µM | > 10 µM | > 10 µM |  |  |  | C=C(C)c1cnc(CNCc2cc(C(=O)O)cc(C)n2)n1Cc1ccc(F)cc1 [Compound 103, 2-{[({1-[(4-fluorophenyl)methyl]-5-(prop-1-en-2-yl)-1H-imidazol-2-yl}methyl)amino]methyl}-6-methylpyridine-4-carboxylic acid]
5 | > 10 µM | > 10 µM | > 10 µM | > 10 µM | > 10 µM | > 10 µM |  | > 10 µM | > 10 µM | CCc1nnc(CNCc2cc(C(=O)O)cc(C)n2)n1Cc1cccc(C(C)O)c1 (stereo not shown) [Compound 86, 2-({[(5-ethyl-4-{[3-(1-hydroxyethyl)phenyl]methyl}-4H-1,2,4-triazol-3-yl)methyl]amino}methyl)-6-methylpyridine-4-carboxylic acid]
6 | > 10 µM | > 10 µM | > 10 µM | 1.62 µM |  | 0.526 µM |  | > 10 µM |  | Cc1cc(C(=O)O)cc(CNCCc2nncn2Cc2ccc(C(F)(F)F)cc2)n1 [Compound 60, 2-methyl-6-({[2-(4-{[4-(trifluoromethyl)phenyl]methyl}-4H-1,2,4-triazol-3-yl)ethyl]amino}methyl)pyridine-4-carboxylic acid]
7 | > 10 µM | > 10 µM | 0.529 µM | 0.283 µM | > 10 µM | > 10 µM |  |  |  | Cc1nnc(CNCc2cc(C(=O)O)cc(CO)n2)n1Cc1ccc(F)cc1 [Compound 72, 2-{[({4-[(4-fluorophenyl)methyl]-5-methyl-4H-1,2,4-triazol-3-yl}methyl)amino]methyl}-6-(hydroxymethyl)pyridine-4-carboxylic acid]
8 | > 10 µM | > 10 µM | 1.8 µM | 1.68 µM | > 10 µM | > 10 µM |  |  |  | CCc1nnc(CNCc2cc(C(=O)O)cc(C)n2)n1C/C=C/c1ccccc1 [Compound 68, 2-{[({5-ethyl-4-[(2E)-3-phenylprop-2-en-1-yl]-4H-1,2,4-triazol-3-yl}methyl)amino]methyl}-6-methylpyridine-4-carboxylic acid]
9 | > 10 µM | > 10 µM | > 10 µM | 2.83 µM | > 10 µM | > 10 µM |  | > 10 µM |  | Cc1cc(C(=O)O)cc(CNCc2nnc3n2C(c2ccccc2)CNC3)n1 (stereo not shown) [Compound 113, 2-methyl-6-{[({5-phenyl-5H,6H,7H,8H-[1,2,4]triazolo[4,3-a]pyrazin-3-yl}methyl)amino]methyl}pyridine-4-carboxylic acid]
10 | > 10 µM | > 10 µM | 9.65 µM | 0.389 µM | > 10 µM | > 10 µM |  |  |  | O=C(O)c1cc(CO)nc(CNCc2nnc(-c3cccs3)n2CCCc2ccccc2)c1 [Compound 95, 2-(hydroxymethyl)-6-[({[4-(3-phenylpropyl)-5-(thiophen-2-yl)-4H-1,2,4-triazol-3-yl]methyl}amino}methyl]pyridine-4-carboxylic acid]
11 | > 10 µM | > 10 µM | 6.56 µM | 1.66 µM | > 10 µM | > 10 µM |  |  |  | CCn1cnc2cc(Cn3cnnc3CNCc3cc(C(=O)O)cc(C)n3)ccc21 [Compound 41, 2-{[({4-[(1-ethyl-1H-1,3-benzodiazol-5-yl)methyl]-4H-1,2,4-triazol-3-yl}methyl)amino]methyl}-6-methylpyridine-4-carboxylic acid]
12 | > 10 µM | > 10 µM | 1.15 µM | 0.07 µM |  |  | 0.635 µM |  |  | CCc1cnc(CNCc2cc(C(=O)O)cc(CO)n2)n1Cc1ccc(F)cc1 [Compound 100, 2-{[({5-ethyl-1-[(4-fluorophenyl)methyl]-1H-imidazol-2-yl}methyl)amino]methyl}-6-(hydroxymethyl)pyridine-4-carboxylic acid]
13 | > 10 µM | > 10 µM | 1.48 µM | 0.032 µM | > 10 µM | > 10 µM |  |  |  | COc1ccc(OCc2ccccc2)c(CNCc2cc(C(=O)O)cc(CO)n2)n1 [Compound 93, 2-[({[3-(Benzyloxy)-6-methoxypyridin-2-yl]methyl}amino)methyl]-6-(hydroxymethyl)pyridine-4-carboxylic acid]
